SMILES strings stand for the structures.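 Briefly, cells in 96-well plates were exposed to five compound concentrations for 48 h, and endpoints were estimated by linear interpolation. TGI: total growth inhibition.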

The first assay relates to SF-539 CNS. In words: growth of human tumour cells (NCI), 48 h.
`[N-]=[N+]=NC1C(O)C(CO)OC1n1ccc(=O)[nH]c1=O` (stereo not given) had a TGI of more than 875 µM.
`CN(C)CCNC(=O)c1ccc2nc3c(nc2c1)C(=O)c1ccccc1-3`: the TGI is more than 100 µM.

In a further assay the test system is MOLT-4 leukemia. The assay can be described thus: growth of human tumour cells (NCI), 48 h.
As for `Fc1ccc(C(=C2CCN(CCc3ccc4[nH]c(=S)[nH]c4c3)CC2)c2ccc(F)cc2)cc1`, the TGI is more than 27.8 µM.
In turn, `C#CC(C)(C)OC(=O)C(=[N+]=[N-])C(C)=O` yielded a TGI of more than 10 µM.
With `CC(C)N(C(=O)C1(O)c2ccccc2C=Cc2ccccc21)C(C)C`, the TGI stood at 82.8 µM.
For the compound `CCOC(=O)C1(C/C=C/CBr)CCc2ccccc2C1=O` (stereo not given), the TGI is more than 100 µM.
Still for that read-out and setting: the figure for `COc1cc(C(C)=O)cc(C(=O)N(C(C)C)C(C)C)c1[Si](C)(C)C` is more than 100 µM; for `CCCCCC(=O)CCCCCCCC(O)CC(=O)OCC` (stereo not given) it is more than 100 µM; for `CN1CCc2c(sc3ncn(C)c(=N)c23)C1` it is more than 100 µM.
`O=S1(=O)Cc2ccc3c4c2-c2c(ccc5ccc(c-4c25)CS(=O)(=O)C3)C1` returned a TGI of more than 100 µM.
Same read-out and setting: to `N#CC1=C(Nc2ccccc2)SC=C(c2ccccc2)NC1=NCc1ccccc1` belongs more than 100 µM; to `COC(=O)c1c(C#N)[nH]c(-c2ccsc2)c1C(=O)OC`, more than 100 µM.
`Cc1cc(C)c2c(c1)C/C(=C\c1ccccc1C(=O)O)C2=O` displayed a TGI of more than 100 µM.
Turning to `CCC(=O)O[C@H]1CC[C@H]2[C@@H]3CCC4=C/C(=N/OC(=O)c5cccc6c(=O)c7ccccc7[nH]c56)CC[C@]4(C)[C@H]3CC[C@]12C`, the TGI was determined as 53.4 µM.
Take `[N-]=[N+]=Nc1cc(=O)[nH]nc1-c1ccccc1`: the TGI was more than 100 µM.
For the compound `COc1ccc(NC(=O)N(C)CC2(O)CCC(C(C)(C)C)CC2)cc1` (stereo not given), the TGI was more than 100 µM.
On the same count and under the same terms, the figure for `[N-]=[N+]=NC1C(O)C(CO)OC1n1ccc(=O)[nH]c1=O` (stereo not given) is more than 875 µM; for `CN(C)CCNC(=O)c1ccc2nc3c(nc2c1)C(=O)c1ccccc1-3` it is 52.6 µM.

A further assay deals with SNB-75 CNS. The assay can be described thus: growth of human tumour cells (NCI), 48 h.
Take `Fc1ccc(C(=C2CCN(CCc3ccc4[nH]c(=S)[nH]c4c3)CC2)c2ccc(F)cc2)cc1`: the TGI was 7.31 µM.
In turn, `C#CC(C)(C)OC(=O)C(=[N+]=[N-])C(C)=O` showed a TGI of more than 10 µM.
The compound `CCOC(=O)C1(C/C=C/CBr)CCc2ccccc2C1=O` (stereo not given) came in with a TGI of 22.6 µM.
As for `COc1cc(C(C)=O)cc(C(=O)N(C(C)C)C(C)C)c1[Si](C)(C)C`, the TGI was 56.4 µM.
`CN1CCc2c(sc3ncn(C)c(=N)c23)C1` yielded a TGI of more than 100 µM.
In turn, `O=S1(=O)Cc2ccc3c4c2-c2c(ccc5ccc(c-4c25)CS(=O)(=O)C3)C1` registered a TGI of more than 100 µM.
The same measure, in the same setting: the figure for `COC(=O)c1c(C#N)[nH]c(-c2ccsc2)c1C(=O)OC` is more than 100 µM; for `Cc1cc(C)c2c(c1)C/C(=C\c1ccccc1C(=O)O)C2=O` it is more than 100 µM; for `CCC(=O)O[C@H]1CC[C@H]2[C@@H]3CCC4=C/C(=N/OC(=O)c5cccc6c(=O)c7ccccc7[nH]c56)CC[C@]4(C)[C@H]3CC[C@]12C` it is more than 100 µM.
Still for that read-out and setting: to `[N-]=[N+]=Nc1cc(=O)[nH]nc1-c1ccccc1` belongs more than 100 µM; to `COc1ccc(NC(=O)N(C)CC2(O)CCC(C(C)(C)C)CC2)cc1` (stereo not given), more than 100 µM.
In the case of `[N-]=[N+]=NC1C(O)C(CO)OC1n1ccc(=O)[nH]c1=O` (stereo not given), the TGI was more than 875 µM.
Regarding `CN(C)CCNC(=O)c1ccc2nc3c(nc2c1)C(=O)c1ccccc1-3`, the TGI is more than 100 µM.

A further assay relates to NCI-H460 lung. The assay can be described thus: growth of human tumour cells (NCI), 48 h.
Compound `Fc1ccc(C(=C2CCN(CCc3ccc4[nH]c(=S)[nH]c4c3)CC2)c2ccc(F)cc2)cc1` yielded a TGI of 8.94 µM.
`C#CC(C)(C)OC(=O)C(=[N+]=[N-])C(C)=O` showed a TGI of more than 10 µM.
In the case of `COc1cc(C(C)=O)cc(C(=O)N(C(C)C)C(C)C)c1[Si](C)(C)C`, the TGI was more than 100 µM.
Same read-out and setting: the figure for `CCCCCC(=O)CCCCCCCC(O)CC(=O)OCC` (stereo not given) is more than 100 µM.
Same read-out and setting: to `CN1CCc2c(sc3ncn(C)c(=N)c23)C1` belongs more than 100 µM.
Same read-out and setting: the figure for `O=S1(=O)Cc2ccc3c4c2-c2c(ccc5ccc(c-4c25)CS(=O)(=O)C3)C1` is more than 100 µM; for `Cc1cc(C)c2c(c1)C/C(=C\c1ccccc1C(=O)O)C2=O` it is 26.4 µM; for `CCC(=O)O[C@H]1CC[C@H]2[C@@H]3CCC4=C/C(=N/OC(=O)c5cccc6c(=O)c7ccccc7[nH]c56)CC[C@]4(C)[C@H]3CC[C@]12C` it is 54.5 µM.
Compound `[N-]=[N+]=Nc1cc(=O)[nH]nc1-c1ccccc1` had a TGI of more than 100 µM.
Take `COc1ccc(NC(=O)N(C)CC2(O)CCC(C(C)(C)C)CC2)cc1` (stereo not given): the TGI was more than 100 µM.
Take `[N-]=[N+]=NC1C(O)C(CO)OC1n1ccc(=O)[nH]c1=O` (stereo not given): the TGI is more than 875 µM.
For `CN(C)CCNC(=O)c1ccc2nc3c(nc2c1)C(=O)c1ccccc1-3`, the TGI is 38.6 µM.

The next assay concerns SNB-19 CNS. In words: growth of human tumour cells (NCI), 48 h.
In the case of `Fc1ccc(C(=C2CCN(CCc3ccc4[nH]c(=S)[nH]c4c3)CC2)c2ccc(F)cc2)cc1`, the TGI is 27.9 µM.
Consider `C#CC(C)(C)OC(=O)C(=[N+]=[N-])C(C)=O`, for which the TGI is more than 10 µM.
Still for that read-out and setting: the figure for `CC(C)N(C(=O)C1(O)c2ccccc2C=Cc2ccccc21)C(C)C` is 44.4 µM; for `CCOC(=O)C1(C/C=C/CBr)CCc2ccccc2C1=O` (stereo not given) it is 30.8 µM; for `COc1cc(C(C)=O)cc(C(=O)N(C(C)C)C(C)C)c1[Si](C)(C)C` it is more than 100 µM.
Still for that read-out and setting: the figure for `CCCCCC(=O)CCCCCCCC(O)CC(=O)OCC` (stereo not given) is more than 100 µM.
Still for that read-out and setting: the figure for `CN1CCc2c(sc3ncn(C)c(=N)c23)C1` is more than 100 µM; for `O=S1(=O)Cc2ccc3c4c2-c2c(ccc5ccc(c-4c25)CS(=O)(=O)C3)C1` it is more than 100 µM.
On to `N#CC1=C(Nc2ccccc2)SC=C(c2ccccc2)NC1=NCc1ccccc1`, for which the TGI was more than 100 µM.
As for `Cc1cc(C)c2c(c1)C/C(=C\c1ccccc1C(=O)O)C2=O`, the TGI was more than 100 µM.
Still for that read-out and setting: the figure for `CCC(=O)O[C@H]1CC[C@H]2[C@@H]3CCC4=C/C(=N/OC(=O)c5cccc6c(=O)c7ccccc7[nH]c56)CC[C@]4(C)[C@H]3CC[C@]12C` is more than 100 µM; for `COc1ccc(NC(=O)N(C)CC2(O)CCC(C(C)(C)C)CC2)cc1` (stereo not given) it is more than 100 µM.
For the compound `[N-]=[N+]=NC1C(O)C(CO)OC1n1ccc(=O)[nH]c1=O` (stereo not given), the TGI is more than 875 µM.
In turn, `CN(C)CCNC(=O)c1ccc2nc3c(nc2c1)C(=O)c1ccccc1-3` came in with a TGI of more than 100 µM.

Another assay has as its system CCRF-CEM leukemia. The assay can be described thus: growth of human tumour cells (NCI), 48 h.
Turning to `Fc1ccc(C(=C2CCN(CCc3ccc4[nH]c(=S)[nH]c4c3)CC2)c2ccc(F)cc2)cc1`, the TGI was more than 20.6 µM.
`C#CC(C)(C)OC(=O)C(=[N+]=[N-])C(C)=O` displayed a TGI of more than 10 µM.
In the case of `CCOC(=O)C1(C/C=C/CBr)CCc2ccccc2C1=O` (stereo not given), the TGI is more than 100 µM.
In the case of `COc1cc(C(C)=O)cc(C(=O)N(C(C)C)C(C)C)c1[Si](C)(C)C`, the TGI was more than 100 µM.
For the compound `CCCCCC(=O)CCCCCCCC(O)CC(=O)OCC` (stereo not given), the TGI is more than 100 µM.
`CN1CCc2c(sc3ncn(C)c(=N)c23)C1` returned a TGI of more than 100 µM.
With `COC(=O)c1c(C#N)[nH]c(-c2ccsc2)c1C(=O)OC`, the TGI is more than 100 µM.
Still for that read-out and setting: the figure for `Cc1cc(C)c2c(c1)C/C(=C\c1ccccc1C(=O)O)C2=O` is more than 100 µM; for `CCC(=O)O[C@H]1CC[C@H]2[C@@H]3CCC4=C/C(=N/OC(=O)c5cccc6c(=O)c7ccccc7[nH]c56)CC[C@]4(C)[C@H]3CC[C@]12C` it is 57.5 µM; for `[N-]=[N+]=Nc1cc(=O)[nH]nc1-c1ccccc1` it is more than 100 µM.
Take `COc1ccc(NC(=O)N(C)CC2(O)CCC(C(C)(C)C)CC2)cc1` (stereo not given): the TGI is more than 100 µM.
The same measure, in the same setting: the figure for `[N-]=[N+]=NC1C(O)C(CO)OC1n1ccc(=O)[nH]c1=O` (stereo not given) is more than 875 µM.
On to `CN(C)CCNC(=O)c1ccc2nc3c(nc2c1)C(=O)c1ccccc1-3`, for which the TGI amounted to 39.3 µM.

These data come from PubChem BioAssay (NCI).
